Consider 1 molecule from patent US8759073B2, “Method for effectively controlling harmful organisms in large-scale culture of microalgae” (ENN Science & Technology Development Co., Ltd., priority 2009, dated 2014).

Data set [1] has as its system Dunaliella tertiolecta. Put plainly: Growth of cultured algae after treatment, 120 L bubbling reactor. Type of data set: cell-based. The conditions noted are these: Example 1; CO2 intermittently pH 6.0-6.5 for 2 days, salinity decreased by 1%. From the text: Salinity was reduced by 1% (e.g. from 9% to 8%) by way of dilution with water. Then air was sufficiently aerated.

Data set [2] deals with Chlorella sp. As to the kind of experiment: Growth of cultured algae after treatment, 320 L bubbling reactor. On the procedure:
(§1) pH of the normally cultured microalgae is adjusted into various ranges. The growth rate of the microalgae is measured and their appearance is observed under a microscope.
Chlorella sp. (purchased from FACHB collection, Wuhan Aquatic Research Institure, Chinses Academy of Sciences) was cultured in a 320 L bubbling reactor (manufactured by Longfang Jiangchuan plexiglass Co. Ltd., φ300 mm×2 m) out-of-doors under a sunlight film. The culture condition included: a temperature of about 25 °C, a humidity of 60%-80%, and an illumination of 8000-20000 lux. Modified SM (see Table 2) (pH 7.0-9.0 for the normal culture) was used. […] Then, CO2 was aerated to adjust pH to be 7.0-8.0.
Chlorella sp. (purchased from FACHB collection, Wuhan Aquatic Research Institure, Chinses Academy of Sciences) was cultured in a 320 L bubbling reactor (manufactured by Longfang Jiangchuan plexiglass Co. Ltd., φ300 mm×2 m) out-of-doors under a sunlight film. Modified SM medium (see Table 2) (pH 7.0-9.0 for the normal culture) was used. The culture condition included: a temperature of about 25 °C, a humidity of 60%-80%, and an illumination of 8000-20000 lux. […] Then air was sufficiently aerated, and pH was raised to 7.0-7.5 after 4 hours.
Chlorella sp. (obtained from Jinan University) was cultured in a 320 L bubbling reactor (manufactured by Longfang Jiangchuan plexiglass Co. Ltd., φ300 mm×2 m) out-of-doors under a sunlight film (with a temperature of about 25 °C, a humidity of 60%-80%, and an illumination of 8000-20000 lux). Modified SM medium (see Table 2) was used. When Amoeba, Oxyrrhis and ciliate contaminations were observed is with an oil immersion lens (Nikon fluorescent invert microscope Ti series), pH was adjusted to 11.0-11.8 with 1M NaOH. […] Then, CO2 was aerated continuously to saturation (pH 5.6). […] Then air was sufficiently aerated.
Chlorella sp. (purchased from FACHB collection, Wuhan Aquatic Research Institure, Chinses Academy of Sciences) was cultured in a 320 L bubbling reactor (manufactured by Longfang Jiangchuan plexiglass Co. Ltd., φ300 mm×2 m) out-of-doors under a sunlight film. Modified SM medium (see Table 2) (pH 7.0-9.0 for the normal culture) was used. The culture condition included: a temperature of about 25 °C, a humidity of 60%-80%, and an illumination of 8000-20000 lux. […] Then CO2 was aerated and pH was adjusted to 7.0-8.0.
Chlorella sp. (obtained from Jinan University) was cultured in a 320 L bubbling reactor (manufactured by Longfang Jiangchuan plexiglass Co. Ltd., φ300 mm×2 m) out-of-doors under a sunlight film (with a temperature of about 25 °C, a humidity of 60%-80%, and an illumination of 8000-20000 lux). Modified SM medium (see Table 2) was used. […] Then CO2 was aerated to saturation (pH 5.6) for 24 hours continuously. […] Then air was sufficiently aerated.

Data set [3] deals with Chlorococcum sp. Put plainly: Growth of cultured algae after treatment, 60 L glass plate reactor. On the procedure: as §1
Chlorococcum sp. (obtained from Qingdao Marine Institute) was cultured (pH 8.0-9.0 for the normal culture) in a 60 L glass plate reactor (manufactured by Longfang Jiangchuan plexiglass Co. Ltd., OP=10 cm) under a sunlight film (with a temperature of about 25 °C, a humidity of 60%-80%, and an illumination of 8000-20000 lux). Modified BG11 medium (see Table 3) was used. […] CO2 was aerated continuously. […] Then air was sufficiently aerated, and pH was raised to 7.0-8.0 in 4 hours.
(§2) Chlorococcum sp. (obtained from Qingdao Marine Institute) was cultured in a 60 L glass plate reactor (manufactured by Longfang Jiangchuan plexiglass Co. Ltd., OP=10 cm) under a sunlight film (with a temperature of about 25 °C, a humidity of 60%-80%, and an illumination of 8000-20000 lux) (pH 8.0-9.0 for the normal culture). Modified BG11 medium (see Table 3) was used. […] Then CO2 was aerated and pH was adjusted to 7.0-8.0.
Chlorococcum sp. (obtained from Qingdao Marine Institute) was cultured in a 60 L glass plate reactor (manufactured by Longfang Jiangchuan plexiglass Co. Ltd., OP=10 cm) under a sunlight film (with a temperature of about 25 °C, a humidity of 60%-80%, and an illumination of 8000-20000 lux) (pH 8.0-9.0 for the normal culture). Modified BG11 medium (see Table 3) was used. […] One hour later, CO2 was aerated to saturation (about pH 5.6) for 24 hour continuously. […] Then air was sufficiently aerated.
Chlorococcum sp. (obtained from Qingdao Marine Institute) was cultured in a 60 L glass plate reactor (manufactured by Longfang Jiangchuan plexiglass Co. Ltd., OP=10 cm) under a sunlight film (with a temperature of about 25 °C, a humidity of 60%-80%, and an illumination of 8000-20000 lux) (pH 8.0-9.0 for the normal culture). Modified BG11 medium (see Table 3) was used. […] Then air was sufficiently aerated.
as §2
Chlorococcum sp. (obtained from Qingdao Marine Institute) was cultured in a 60 L glass plate reactor (manufactured by Longfang Jiangchuan plexiglass Co. Ltd., OP=10 cm) under a sunlight film (with a temperature of about 25 °C, a humidity of 60%-80%, and an illumination of 8000-20000 lux) (pH 8.0-9.0 for the normal culture). Modified BG11 medium (see Table 3) was used.

In data set [4] the test system is Spirulina maxima. Put plainly: Growth of cultured algae after treatment, 500 L raceway pond. Type of data set: cell-based. The conditions noted are these: Example 15; 1M ammonia pH 10.0 1 h, saturated CO2 23 h, then air. The protocol:
Modified SM (see Table 2) was used. […] Then air was sufficiently aerated. Twenty-four hours later, the algae could resume to grow.
Modified SM (see Table 2) was used. […] One hour later, CO2 was aerated to saturation for 23 hour continuously (about pH 5.8). […] Then air was sufficiently aerated. Twenty-four hours later, the algae could resume to grow.

Entries after “also recorded” stand apart in the source; their conditions may differ.

Take `O=C=O` [CO2, carbon dioxide]: the “impact on the growth of algae” value in data set [1] is “not affected essentially; also recorded: little impact on the growth of algae”. The “growth of the algae” value in data set [2] is on record as “almost not affected”; in data set [3], “rarely affected”. Moreover, the “time until algae started to grow (FIG. 4)” value in data set [2] is on record as “About 28 hours”. Further, the “time until algae started to grow after recovery of pH7.0 or above” value in data set [2] (pH 7) is 24 hours; in data set [3] (pH 7), 8 hours. Besides, the “time until algae resumed to grow after air aeration” value in data set [2] (pH 9) is “Twenty-four”; in data set [3] (pH 9), “Eighteen”; in data set [4], “Twenty-four”.
